Reference: PubChem BioAssay (NCI)
Where “and” joins values, the source holds several entries; their conditions need not be identical. Equal values may be shown once.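 Five concentrations, 48 hours, 96-well plates. The concentration for 50% growth inhibition is given as GI50. At the TGI there is no net growth.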

Key:
Assay in all cases: NCI-60 cell line screen, 48 h
DMS 273 small cell lung = test system: DMS 273 small cell lung
SNB-78 CNS = test system: SNB-78 CNS
RXF-631 renal = test system: RXF-631 renal
DMS 114 small cell lung = test system: DMS 114 small cell lung
XF 498 CNS = test system: XF 498 CNS
BT-549 breast = test system: BT-549 breast
HS 578T breast = test system: HS 578T breast
PC-3 prostate = test system: PC-3 prostate
MDA-N = test system: MDA-N

Row | SMILES | TGI (DMS 273 small cell lung) | TGI (SNB-78 CNS) | TGI (DMS 114 small cell lung) [µM] | GI50 (BT-549 breast) | TGI (BT-549 breast) | GI50 (HS 578T breast) | TGI (HS 578T breast) | GI50 (PC-3 prostate) | TGI (PC-3 prostate) | further results
1 | N#CCc1nc2c(s1)C(=O)c1ccccc1C2=O | 29.9 µM | 47.7 µM | 20.1 |  |  |  |  |  |  | TGI (RXF-631 renal): 42.7 µM
2 | C/C(=N\N=C(N)N)c1sc(-c2nc(C)c(/C(C)=N/N=C(N)N)s2)nc1C | > 100 µM | > 100 µM |  |  |  |  |  |  |  | TGI (XF 498 CNS): > 100 µM
3 | NC(=O)c1ccc(NC(=O)c2oc3ccccc3c2-c2cnn(-c3ccccc3)c2)cc1 |  |  |  | 3.51 µM | > 100 µM | 4.56 µM | > 100 µM |  |  | 
4 | NC(=O)Cn1c(=O)[nH]c(=O)c2[nH]cnc21 | > 100 µM |  | > 100 |  |  |  |  |  |  | 
5 | O=C(O)c1c(Cl)c(Cl)c(Cl)c(Cl)c1-c1c2cc(I)c(=O)c(I)c-2oc2c(I)c(O)c(I)cc12 |  |  |  | 26.9 µM and 35.9 µM | 82.6 µM and 83.2 µM | 35.7 µM and 33 µM | 83.7 µM | 39.8 µM and 42.3 µM | 89.3 µM | 
6 | CC1=C[C@H]2C[C@@]3(C)O[C@@H]([C@]4(C)CC[C@H]([C@@H](C)C(=O)O)OO4)CC3C(C)(C)[C@H]2CC1 (stereo not given in full) | 1.74 µM | 2.78 µM | 3.32 |  |  |  |  |  |  | TGI (XF 498 CNS): 0.234 µM
7 | COC(=N)/C(=C1\OC(N)=C(c2ccc(Cl)cc2)C1=O)c1ccc(Cl)cc1 | > 100 µM | > 100 µM | > 100 |  |  |  |  |  |  | TGI (XF 498 CNS): > 100 µM
8 | O=C1CCCC2COc3ccc(O)c1c32 (stereo not given) | > 100 µM | > 100 µM | > 100 |  |  |  |  |  |  | TGI (RXF-631 renal): > 100 µM
9 | COc1cc([N+](=O)[O-])c2ncccc2c1O |  |  |  | 21.2 µM | 87.3 µM | 2.74 µM | 27.3 µM | 6.54 µM | > 100 µM | 
10 | NC(=NC1C2CC3CC(C2)CC1C3)Nc1ccc(I)cc1 (stereo not given) |  |  |  | 3.33 µM | 12.8 µM | 4.65 µM | 25.2 µM | 3.14 µM | 12.2 µM | 
11 | O=C1CCCc2c(O)ccc(O)c21 | > 100 µM | > 100 µM | 74.9 |  |  |  |  |  |  | 
12 | C[P+](C)(CC(F)(F)F)c1ccccc1 | > 100 µM | > 100 µM | > 100 |  |  |  |  |  |  | 
13 | CCOC(=O)c1cc2cc([N+](=O)[O-])ccc2oc1=O |  |  |  |  | > 100 µM |  | > 100 µM |  | > 100 µM | TGI (MDA-N): > 100 µM
14 | O=C(NNc1ccc([N+](=O)[O-])cc1)C1OC(CO)C(O)C1O (stereo not given) | > 100 µM | > 100 µM | > 100 |  |  |  |  |  |  | TGI (XF 498 CNS): > 100 µM
15 | CC1=CC(=O)c2[nH]c3ccccc3c2C1=O | 7.83 µM |  | 7.82 |  |  |  |  |  |  | GI50 (DMS 273 small cell lung): 4.26 µM; GI50 (XF 498 CNS): 4.38 µM; TGI (XF 498 CNS): 7.99 µM
16 | CCc1ccc(/C=C2/SC(=S)NC2=O)cc1 |  |  |  | 20.9 µM | 58.2 µM | 16.3 µM | 70.6 µM | 23.3 µM | > 100 µM | 
17 | C1CCN2CC34CC(CC5CCCN(C6CCCC3N6)C54)C2C1 (stereo not given) |  |  |  |  | > 100 µM |  | > 100 µM |  | > 100 µM | TGI (MDA-N): > 100 µM
18 | Clc1cccc(C2SCc3nc4ccccc4n32)c1Cl (stereo not given) | 32.1 µM | 55.6 µM | 36.4 |  |  |  |  |  |  | TGI (XF 498 CNS): 29.9 µM

Row | SMILES | TGI (DMS 273 small cell lung) | TGI (SNB-78 CNS) | TGI (DMS 114 small cell lung) [µM] | GI50 (BT-549 breast) | TGI (BT-549 breast) | GI50 (HS 578T breast) | TGI (HS 578T breast) | GI50 (PC-3 prostate) | TGI (PC-3 prostate) | further results
19 | Cc1nc(Nc2ccc([N+](=O)[O-])cc2)sc1C(=O)/C=C/c1ccc(N(C)C)cc1 | > 100 µM |  | > 100 |  |  |  |  |  |  | TGI (RXF-631 renal): > 100 µM
20 | N#CC(C#N)=C/C=C/c1cccc([N+](=O)[O-])c1 |  |  |  |  |  | 0.325 µM | 2.75 µM | 2.09 µM | 19.3 µM | 
21 | Cc1[nH]nc(C(=O)N/N=C/c2cccs2)c1N=NN(C)C |  |  |  |  | 27.3 µM |  | > 100 µM |  | > 100 µM | 
22 | Cc1cc(C#Cc2ccccc2)ccc1-n1c(/C=C/c2ccc(O)cc2)nc2ccccc2c1=O |  |  |  |  |  | 2.48 µM | 49.5 µM | 3.24 µM | > 100 µM | 
23 | O=C(/C=C/c1cccs1)Nc1ncc(Cc2ccccc2F)s1 |  |  |  |  | > 100 µM | 0.27 µM | > 100 µM | 0.261 µM | > 100 µM | 
24 | O=C1CCC(c2ccccc2)(c2ccccc2)CC1 |  |  |  |  | > 100 µM |  | > 100 µM |  | > 100 µM | TGI (MDA-N): > 100 µM
25 | CCN(CC)c1ccc(/C=N\NC(=O)c2cccc(Nc3ccnc(C(F)(F)F)c3)c2)c(O)c1 |  |  |  | 0.427 µM | > 65.1 µM | 0.374 µM | 11.6 µM | 0.646 µM | > 100 µM | 
26 | CN(C)/C(=N/C(=O)Nc1ccccc1)SCc1ccccc1 | > 100 µM | > 100 µM | > 100 |  |  |  |  |  |  | TGI (XF 498 CNS): > 100 µM
27 | COCCOC(=O)CCn1cc(F)c(=O)[nH]c1=O |  |  |  | 16.2 µg/mL | > 150 µg/mL | > 150 µg/mL | > 150 µg/mL | 108 µg/mL | > 150 µg/mL | GI50 (MDA-N): 2.29 µg/mL; TGI (MDA-N): > 150 µg/mL
28 | COc1cc(C=NCC(=O)CSC(c2ccccc2)c2ccccc2)cc(OC)c1OC |  |  |  | 26.5 µM | 93.9 µM | 19 µM | 59.4 µM | 9.09 µM | > 100 µM | 
29 | C=C1C(=O)O[C@H]2[C@H](OC(C)=O)[C@@H](C)CCC/C(C)=C/CC[C@]3(CO3)[C@H](O)C[C@@H]12 |  |  |  | 3.77 µM | 15.4 µM | 14.4 µM | 35.3 µM |  |  | 
30 | S=C1OC2C3C4CC5C3C(O1)C1C5C4C21 (stereo not given) | > 100 µM | > 100 µM | > 100 |  |  |  |  |  |  | 
31 | COS(=O)CCOC(=O)c1ccccc1SSc1ccccc1C(=O)OCCS(=O)OC (stereo not given) | > 100 µM | > 100 µM | 34.1 |  |  |  |  |  |  | TGI (XF 498 CNS): 62.8 µM
32 | O=C(O)c1oc2ccc([N+](=O)[O-])c3c2c1CCC3 | > 100 µM | > 100 µM | > 100 |  |  |  |  |  |  | TGI (XF 498 CNS): > 100 µM
33 | Cc1ccc(S(=O)(=O)ON=C2CC(c3ccccc3)N(C)C(c3ccccc3)C2)cc1 (stereo not given) | 41.4 µM and 56.8 µM | 64.7 µM and 52.8 µM | 29.9 |  |  |  |  |  |  | 
34 | CN1C=CN(Cc2ccc(-c3ccccn3)nc2)[CH-]1.CN1C=CN(Cc2ccc(-c3ccccn3)nc2)[CH-]1.[Au+3] |  |  |  | 2.46 µM | 20.1 µM | > 40.6 µM | > 100 µM | 0.922 µM | > 100 µM | 
35 | CC(=O)OCC1OC(O[C@@H]2C[C@H]3C(C)(C)[C@H](OC(C)=O)CC[C@]3(C)[C@H]3CC[C@@H]4[C@]5(CC[C@@]4(C)[C@@]32C)O[C@@H]([C@H](O)C(C)(C)O)C[C@@H]5C)C(O)C(O)C1O (stereo not given in full) |  |  |  | 12.1 µM | 24.5 µM | 9.3 µM | 25.4 µM | 3.84 µM | 14.3 µM | GI50 (MDA-N): 7.08 µM; TGI (MDA-N): 20.1 µM
